The target of one assay is T1, collagenase (Homo sapiens, UniProt P03956).
T1 sequence (P03956 100-469): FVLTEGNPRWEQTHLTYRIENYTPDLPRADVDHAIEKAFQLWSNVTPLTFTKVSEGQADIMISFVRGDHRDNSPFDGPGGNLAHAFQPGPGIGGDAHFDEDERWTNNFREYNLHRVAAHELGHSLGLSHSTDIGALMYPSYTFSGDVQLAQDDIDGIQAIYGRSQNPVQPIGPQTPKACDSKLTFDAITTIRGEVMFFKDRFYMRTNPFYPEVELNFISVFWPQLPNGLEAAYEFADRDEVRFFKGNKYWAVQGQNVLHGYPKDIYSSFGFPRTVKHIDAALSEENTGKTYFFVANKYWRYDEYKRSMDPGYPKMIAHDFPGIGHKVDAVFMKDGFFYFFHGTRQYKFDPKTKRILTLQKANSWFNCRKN
The experiment in a line: Collagenase Inhibition Activity (procedure of Cawston and Barrett). To be noted: for IC50: acetylated 14C collagen, 37°, 16 hours, pH 7.5, read-out: IC50 (inhibitor concentration effecting 50% inhibition of the collagenase). The class given is biochemical.

A further assay concerns the target stromelysin (Homo sapiens, UniProt P08254). In words: Stromelysin Inhibition Activity (procedure of Cawston et al). To be noted: for protoglycanase inhibiting activity, in words: protoglycanase = stromelysin (b7). The class given is biochemical. How it is done:
The potency of compounds of general formula I to act as inhibitors of collagenase (a metalloprotease involved in tissue degradation) was determined by the procedure of Cawston and Barrett, (Anal. Biochem., 99, 340-345, 1979) and their potency to act as inhibitors of stromelysin was determined using the procedure of Cawston et al (Biochem. J., 195, 159-165 1981), both of which techniques are to be described more fully in the examples and, to the extent that the law allows, are incorporated by reference herein.

Sequence of stromelysin (P08254 100-477): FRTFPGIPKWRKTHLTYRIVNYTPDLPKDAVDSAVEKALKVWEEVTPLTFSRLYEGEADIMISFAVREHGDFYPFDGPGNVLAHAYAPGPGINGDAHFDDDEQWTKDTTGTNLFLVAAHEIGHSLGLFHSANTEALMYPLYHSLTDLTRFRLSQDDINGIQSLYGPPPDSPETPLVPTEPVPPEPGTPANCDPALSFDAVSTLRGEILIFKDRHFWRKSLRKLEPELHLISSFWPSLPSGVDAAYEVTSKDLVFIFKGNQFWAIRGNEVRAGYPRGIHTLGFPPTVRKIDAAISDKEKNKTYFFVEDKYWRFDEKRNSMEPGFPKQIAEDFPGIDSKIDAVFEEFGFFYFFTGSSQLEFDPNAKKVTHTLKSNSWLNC

With `CC(C)C[C@H](CC(=O)NO)C(=O)N[C@@H](Cc1ccccc1)C(=O)NCCN1CCCC1` [Example 3, [4-(N-Hydroxyamino)-2R-isobutylsuccinyl]-L-phenylalanine-N-[1-(2-aminoethyl)-pyrrolidine]amide], the IC50 on collagenase was 70 nM.

`CC(C)C[C@H](CC(=O)NO)C(=O)N[C@@H](Cc1ccccc1)C(=O)NCc1cccnc1` [Example 6, [4-(N-Hydroxyamino)-2R-isobutylsuccinyl]-L-phenylalanine-N-(3-aminomethylpyridine)amide]: at collagenase, the “collagenase-inhibiting activity, in words” value is recorded as “good” and the IC50 was 20 nM. Besides, the “protoglycanase inhibiting activity, in words” value on stromelysin was “good”.

Regarding `CC(C)C[C@@H](C(=O)N[C@@H](Cc1ccccc1)C(=O)NCCN1CCOCC1)[C@H](C)C(=O)NO` [Example 11, [4-(N-Hydroxyamino)-2R-isobutyl-3S-methylsuccinyl]-L-phenylalanine-N-[4-(2-aminoethyl)-morpholino]amide], at collagenase, the “collagenase-inhibiting activity, in words” value is reported as “good” and the IC50 was 15 nM. For the same compound, the IC50 on stromelysin (14C acetylated casein, 37° C., 16 hours, pH 7.5, read-out: IC50 (inhibitor concentration effecting 50% inhibition of the stromelysin)) came out at 50 nM. The “protoglycanase inhibiting activity, in words” value on stromelysin was “good”.
